According to the supplement of paper PMC10331698:
± gives the standard deviation of the averaged measurements.

Legend:
Assay in all cases: level (log10 ratio to DMSO vehicle control); higher = higher biomarker level / cell amount than vehicle control
[1] = compound: OCC(F)(F)C(F)(F)C(F)(F)C(F)(F)C(F)(F)C(F)(F)C(F)(F)C(F)(F)CO [1H,1H,10H,10H-Perfluorodecane-1,10-diol]; details: in DMSO
Experimental: (§1)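 BioMAP Diversity Plus panel of 12 human primary cell co-culture systems (3C, 4H, LPS, SAg, BT, BF4T, BE3C, CASM3C, HDF3CGF, KF3CT, MyoF, Mphg). Compounds were added 1 h before stimulation and left for 24 h (MyoF 48 h; BT 72 h for soluble read-outs or 6 d for IgG). Biomarkers were read by ELISA, cytotoxicity by SRB, PBMC viability and proliferation by Alamar Blue. Each well value was divided by the mean of 8 DMSO control wells on the same plate and log10 transformed; duplicate blinded samples were tested at 4 concentrations.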

Perfluorooctanoic acid = compound: O=C(O)C(F)(F)C(F)(F)C(F)(F)C(F)(F)C(F)(F)C(F)(F)C(F)(F)F [Perfluorooctanoic acid]; details: in DMSO
Experimental: as §1

[2] = compound: C=CC(=O)OCC(F)(F)C(F)(F)C(F)(F)C(F)(F)COC(=O)C=C [1H,1H,6H,6H-Perfluorohexane-1,6-diol diacrylate]; details: 6700 nM; in DMSO
Experimental: as §1

[3] = compound: O=S(=O)(O)CCC(F)(F)C(F)(F)C(F)(F)C(F)(F)F [4:2 Fluorotelomer sulfonic acid]; details: in DMSO
Experimental: as §1

Methotrexate = compound: CN(Cc1cnc2nc(N)nc(N)c2n1)c1ccc(C(=O)N[C@@H](CCC(=O)O)C(=O)O)cc1 [Methotrexate]; details: in DMSO
Experimental: as §1

[4] = compound: OCCCC(F)(F)C(F)(F)C(F)(F)C(F)(F)C(F)(F)C(F)(F)C(F)(F)C(F)(F)F [3-(Perfluorooctyl)propanol]; details: 6700 nM; in DMSO
Experimental: as §1

[5] = compound: O=C(O)C(F)(F)C(F)(F)C(F)(F)C(F)(F)C(F)(F)C(F)(F)C(F)(F)F [Ammonium perfluorooctanoate]; details: in DMSO
Experimental: as §1

[6] = compound: FC(F)(I)C(F)(F)C(F)(F)C(F)(F)C(F)(F)C(F)(F)I [1,6-Diiodoperfluorohexane]; details: 6700 nM; in DMSO
Experimental: as §1

Test System	level (log10) ([1]; 6700 nM)	level (log10) ([1]; 20000 nM)	level (log10) ([1]; 60000 nM)	level (log10) (Perfluorooctanoic acid; 6700 nM)	level (log10) (Perfluorooctanoic acid; 20000 nM)	level (log10) (Perfluorooctanoic acid; 60000 nM)	level (log10) [2]	level (log10) ([3]; 6700 nM)	level (log10) ([3]; 20000 nM)	level (log10) ([3]; 60000 nM)	level (log10) (Methotrexate; 1500 nM)	level (log10) (Methotrexate; 4400 nM)	level (log10) (Methotrexate; 13000 nM)	level (log10) (Methotrexate; 40000 nM)	level (log10) [4]	level (log10) ([5]; 6700 nM)	level (log10) ([5]; 20000 nM)	level (log10) ([5]; 60000 nM)	level (log10) [6]
4H:CD62P/P-selectin	-0.029 ± 0.052	-0.07 ± 0.083	-0.169	-0.005 ± 0.013	0.001 ± 0.0014	0.05 ± 0.02	-0.104 ± 0.026	-0.045 ± 0.075	-0.0285 ± 0.059	0.005 ± 0.073	-0.019 ± 0.0028	-0.0195 ± 0.032	-0.0045 ± 0.086	-0.0055 ± 0.073	-0.0465 ± 0.022	0.0195 ± 0.012	0.043 ± 0.088	0.0515 ± 0.036	-0.001
3C:SRB	0.01 ± 0.034	-0.021 ± 0.033	-0.106	-0.017 ± 0.0042	0.0045 ± 0.019	-0.102 ± 0.044	-0.0015 ± 0.028	-0.0135 ± 0.011	-0.0145 ± 0.0078	-0.0255 ± 0.025	0.0055 ± 0.0035	0 ± 0.017	0.011 ± 0.028	-0.0155 ± 0.0021	-0.0195 ± 0.018	-0.0015 ± 0.012	-0.014 ± 0.0042	-0.05 ± 0.0099	0.03
SAg:CD62E/E-Selectin	-0.0215 ± 0.005	-0.015 ± 0.0099	-0.015	0.009 ± 0.0057	0.015 ± 0.0085	0.086 ± 0.0014	-0.15 ± 0.021	-0.016 ± 0.0085	-0.011 ± 0.0071	0.009 ± 0.0071	0.007 ± 0.011	-0.0015 ± 0.032	0.019 ± 0.016	-0.0075 ± 0.018	-0.014 ± 0.0099	0.0045 ± 0.0035	0.02 ± 0.013	0.035 ± 0.0014	0
SAg:CD69	-0.042 ± 0.044	-0.0685 ± 0.066	-0.119	-0.0095 ± 0.0035	-0.0265 ± 0.011	-0.0355 ± 0.016	-0.0645 ± 0.029	-0.023 ± 0.027	-0.0165 ± 0.028	-0.028 ± 0.037	-0.001 ± 0.0085	-0.033 ± 0.024	-0.0185 ± 0.061	-0.003 ± 0.04	-0.036 ± 0.014	-0.0115 ± 0.00071	-0.026 ± 0.0014	-0.062 ± 0.0085	-0.026
LPS:CD40	-0.0225 ± 0.015	-0.0585 ± 0.037	-0.095	0.006 ± 0.025	-0.032 ± 0.057	-0.0815 ± 0.022	-0.1475 ± 0.00071	0.0175 ± 0.079	0.0505 ± 0.043	0.032 ± 0.071	-0.033 ± 0.018	-0.0475 ± 0.011	-0.009 ± 0.028	-0.0155 ± 0.03	-0.039 ± 0.018	0.024 ± 0.025	0.0265 ± 0.088	-0.117 ± 0.093	-0.009
BE3C:CD87/uPAR	-0.013 ± 0.011	-0.042 ± 0.024	-0.337	-0.039 ± 0.057	-0.028 ± 0.072	0.0245 ± 0.023	0.014 ± 0.023	0.002 ± 0.02	-0.004 ± 0.021	-0.007 ± 0.0071	0.0225 ± 0.005	-0.0145 ± 0.011	0 ± 0.016	0.0145 ± 0.015	0.02 ± 0.047	0.0105 ± 0.022	0.0315 ± 0.0035	0.0125 ± 0.023	0.059
SAg:CXCL9/MIG	-0.022 ± 0.0042	0.0005 ± 0.019	-0.021	-0.0085 ± 0.0021	-0.008 ± 0.0028	0.004 ± 0.017	-0.009 ± 0.018	-0.0055 ± 0.013	-0.0075 ± 0.0064	0.0035 ± 0.005	0.0095 ± 0.0035	0 ± 0.035	0.006 ± 0.034	-0.003 ± 0.027	-0.0205 ± 0.0078	-0.004	0.003 ± 0.013	0.009 ± 0.0085	-0.008
BF4T:CD106/VCAM-1	-0.012 ± 0.023	-0.139 ± 0.037	-0.145	-0.037 ± 0.017	-0.0345 ± 0.032	0 ± 0.065	-0.132 ± 0.016	-0.0045 ± 0.0078	-0.018 ± 0.0028	0.0085 ± 0.046	0.014 ± 0.024	0.0165 ± 0.029	0.0245 ± 0.016	0.0245 ± 0.011	-0.014 ± 0.0099	-0.0315 ± 0.021	-0.0315 ± 0.0064	-0.032 ± 0.017	-0.041
BT:sIL-17A	-0.0865 ± 0.012	-0.208 ± 0.24	-0.729	0.009 ± 0.048	-0.165 ± 0.11	-0.0845 ± 0.12	-0.863 ± 0.015	-0.127 ± 0.005	-0.078 ± 0.2	-0.116 ± 0.096	-0.0735 ± 0.14	-0.02 ± 0.058	-0.002 ± 0.11	-0.197 ± 0.18	0.023 ± 0.028	-0.168 ± 0.2	-0.0675 ± 0.037	-0.282 ± 0.23	-0.079
SAg:Proliferation	-0.0135 ± 0.025	-0.058 ± 0.013	-0.048	0.044 ± 0.0085	0.041	0.016 ± 0.025	-0.296 ± 0.063	-0.0615 ± 0.015	0.009 ± 0.054	-0.017 ± 0.041	-0.085 ± 0.011	-0.199 ± 0.044	-0.253 ± 0.016	-0.263 ± 0.023	-0.005 ± 0.023	0.002 ± 0.0085	0.0175 ± 0.029	0.044 ± 0.044	-0.028
BF4T:SRB	-0.005 ± 0.0028	-0.0315 ± 0.0035	-0.097	-0.008 ± 0.0099	0.0015 ± 0.0064	-0.0005 ± 0.013	-0.01 ± 0.0014	-0.012 ± 0.0042	-0.0085 ± 0.0064	-0.0075 ± 0.0064	-0.003 ± 0.017	-0.0105 ± 0.0078	-0.007 ± 0.0071	0.0045 ± 0.023	-0.0075 ± 0.0021	-0.0085 ± 0.005	-0.002 ± 0.0042	0.0005 ± 0.016	-0.016
BF4T:IL-1alpha	0.0005 ± 0.0021	-0.025 ± 0.023	-0.035	-0.009 ± 0.0057	-0.0125 ± 0.018	-0.0055 ± 0.018	-0.0155 ± 0.025	-0.0025 ± 0.015	-0.013 ± 0.0028	0.0135 ± 0.029	0.0145 ± 0.00071	-0.037 ± 0.0042	-0.012 ± 0.031	0.0045 ± 0.0021	-0.012 ± 0.0014	-0.02 ± 0.014	-0.0235 ± 0.0035	-0.0365 ± 0.015	-0.017
LPS:IL-1alpha	0.0225 ± 0.033	0.027 ± 0.016	0.066	0.0135 ± 0.0035	-0.0205 ± 0.043	-0.007 ± 0.017	-0.0065 ± 0.015	-0.007 ± 0.035	-0.001 ± 0.03	0.0035 ± 0.018	-0.003 ± 0.024	0.003 ± 0.017	0.005 ± 0.031	0.0465 ± 0.077	-0.267 ± 0.065	0.019 ± 0.0042	0.0045 ± 0.00071	-0.034 ± 0.024	-0.016
4H:CCL26/Eotaxin-3	-0.005 ± 0.037	-0.0125 ± 0.035	-0.179	0.0215 ± 0.087	-0.022 ± 0.12	-0.0255 ± 0.14	-0.0435 ± 0.005	-0.084 ± 0.042	-0.004 ± 0.037	0.0225 ± 0.037	-0.018 ± 0.0085	-0.008 ± 0.011	0.014 ± 0.021	-0.002 ± 0.014	-0.009 ± 0.0042	-0.005 ± 0.0028	-0.013 ± 0.0057	-0.0385 ± 0.028	-0.037
BT:Secreted IgG	-0.0135 ± 0.005	-0.0415 ± 0.011	-0.82	0.0095 ± 0.026	-0.005 ± 0.013	-0.0165 ± 0.0078	-0.489 ± 0.25	0.006 ± 0.052	0.021 ± 0.061	0.0055 ± 0.054	-1.302 ± 0.011	-1.31 ± 0.079	-1.33	-1.26	0.009 ± 0.016	0.032 ± 0.017	0.0155 ± 0.037	-0.019 ± 0.033	0.019
